In ChEMBL document CHEMBL1150907, “Epolones: novel sesquiterpene-tropolones from fungus OS-F69284 that induce erythropoietin in human cells” (1998):

Tests used:
Hep 3B2 [1] = test: Induction of human erythropoietin gene expression in human Hep3B cells over expressing human EPO assessed as concentration required to produce 5-fold induction ratio by luciferase reporter gene assay relative to control; assay type: functional
Hep 3B2 [2] = test: Induction of human erythropoietin gene expression in human Hep3B cells over expressing human EPO assessed as maximum induction ratio at 4.3 uM by luciferase reporter gene assay relative to control; assay type: functional
Hep 3B2 [3] = test: Induction of erythropoietin secretion in human Hep3B cells expressing human EPO at 10 uM by ELISA; assay type: functional
[4] = Cytotoxicity against human Hep3B cells after 48 hrs by MTT assay; assay type: functional, Hep 3B2
Hep 3B2 [5] = test: Induction of human erythropoietin gene expression in human Hep3B cells over expressing human EPO assessed as maximum induction ratio at 6.5 uM by luciferase reporter gene assay relative to control; assay type: functional

Compound | Activity (Hep 3B2 [1]) | Ratio (Hep 3B2 [2]) | Activity (Hep 3B2 [3]) | IC90 [4] | Ratio (Hep 3B2 [5])
Cc1cc(=O)c(O)cc2c1C[C@H]1CC(C)(C)/C=C/C[C@@]3(C)Oc4cc(O)cc(C)c4C[C@@H]3C[C@H](O)[C@]1(C)O2 [EPOLONE A] | 1 µM | 26 | 45 mU/ml | > 40 µM | –
C/C1=C\CC(C)(C)/C=C/C[C@@]2(C)Oc3cc(O)c(=O)cc(C)c3C[C@@H]2C[C@H]1O [EPOLONE B] | 1.5 µM | – | 40 mU/ml | > 40 µM | 22
Cc1cc(=O)c(O)cc2c1C[C@H]1CC(C)(C)/C=C/C[C@@]3(C)Oc4cc(O)c(=O)cc(C)c4C[C@@H]3C[C@H](O)[C@]1(C)O2 [PYCNIDIONE] | 1.6 µM | 19 | 34 mU/ml | > 40 µM | –
